≈ marks a conversion by molar mass, not a printed value.
What was measured:
M17-TAU P301L cells [1] = assay: TAU-induced toxicity: LDH leakage of retinoic acid incubated M17-TAU P301L cells; format: cell-based, human; conditions: for EC50: Homo sapiens, reduction of LDH activity of retinoic acid incubated M17-TAU P301L cells, read-out: EC50 (μg/ml) TAU-induced toxicity
Text: A TAU expression plasmid was constructed by sub-cloning the cDNA of human TAU-P301L (encoding for TAU with proline 301 substituted by a leucine residue) into mammalian expression vector pcDNA3.1 resulting in plasmid pcDNA3.1-TAU P301L. Plasmids pcDNA3.1 and pcDNA3.1-TAU P301L were transfected to human neuroblastoma cells ([…]; ATCC No. CRL-2267) and independent clonal lines with the plasmids stably integrated into the genome were selected. […] Expression of the TAU P301L genes in the cell lines was confirmed by Western analysis.
In degenerated or dead cells lactate dehydrogenase (LDH) leaks out of the cells into the extracellular environment due to a loss of plasma-membrane integrity. This principle was used to determine cytotoxicity by quantifying the level of leaked LDH into the growth medium relative to the sum of total LDH activity from living cells and dead cells.
The detailed method for determining cytotoxicity was as follows: From appropriate precultures of M17-3.1 and M17-TAU(P301L) cells were seeded at 2500 cells/cm2 in Optimem Reduced Serum without phenol red (Gibco, Cat. 31985-047) supplemented with 1% fetal calf serum, 1 mM sodium pyruvate, 1× non-essential amino acids, 500 μg/ml G418 0.5× antibiotic/antimycotic. After 3 hours of incubation at 37° C./5% CO2 1 volume of Optimem Reduced Serum (same as described above; except without fetal calf serum) supplemented with 2.5 μM all-trans retinoic acid (ATRA) was added. The cells were further incubated for 7 days. Subsequently, LDH activity was determined using Promega Cytotox 96 Non-Radioactive cytotoxicity assay, (Cat. G1780) according the supplier's instructions.
The M17-TAU P301L cell line made it possible to assess the ability of novel compounds to counteract TAU cytotoxicity. […] These measurements were used to calculate EC50 values.
Exemplary compounds of the present invention are shown in Table 1, with their chemical structure and their EC50 value (expressed in μg/ml) as determined from example 12 in the TAU-induced toxicity experiment.

M17-TAU P301L cells [2] = assay: Cytosolic calcium (Fura-2) in M17-TAU P301L cell model of calcium dyshomeostasis; format: cell-based; conditions: Homo sapiens, Fura-2 340/380 nm ratio, read-out: EC50 value of lowering cytosolic Ca^2+
Procedure: Cystosic calcium was measured by loading the cells with a medium containing Fura-2 AM (Sigma-Aldrich), a cell permeable fluorescent probe for Ca^2+. Fura-2-AM was dissolved in DMSO plus 20% Pluronic Acid (F-127) (Invitrogen) in a 1:1 ratio and diluted in medium to a final concentration of 0.5 μM. To this loading medium probenecid (Sigma-Aldrich) was added to a final concentration of 2.5 mM. Then, culture medium was replaced by loading medium and after incubation for 1 hour at 37° C. cells were washed twice and replaced with HBSS (Gibco) supplemented with 0.2% FBS and 0.02M HEPES. Next, changes in cytosolic calcium were measured using a FlexStation 3 microplate reader (Molecular Devices) and quantified ratiometric, by calculating changes in the amount of cytosolic Ca^2+ bound Fura-2 (fluorescence intensity at 340 nm) relative to the amount of Ca^2+ unbound Fura-2 (fluorescence intensity at 380 nm). Data was processed in SoftMax Pro 5.4.6 software (Molecular Devices).
In addition compounds were tested to lower the elevated cytosolic calcium levels. In the presence of the compounds these cytosolic calcium levels were decreased.
Compounds were tested to lower the elevated cytosolic Ca^2+ levels in the cell model of calcium dyshomeostasis (FIG. 1B) as described in example 10.
Exemplary compounds of the present invention are shown in Table 2, with their chemical structure and their EC50 value of lowering cytosolic Ca^2+ (expressed in μg/ml).

TAU phosphorylation = assay: In vivo inhibition of TAU phosphorylation in brain of APP*PS1 mice (Western analysis); conditions: 20 mg/kg subcutaneously daily for 2 weeks, 5 month old APP*PS1 mice, versus vehicle, FIG. 6
Text: FIG. 6 represents graphs plotting quantifications of pathologically phosphorylated TAU species determined by Western blots of brain extracts from transgenic APP mice treated with vehicle or with exemplary Compound 6. The graphs depict the mean normalized TAU signals±SEM. ** indicate p<0.01 relative to vehicle treated animals. The TAU signals were obtained by using antibodies directed against: • (A) AT8 p-TAU, indicates the antibody recognising p-TAU phosphorylated on serine 202 and threonine 205 • (B) AD2 p-TAU, indicates the antibody recognising p-TAU phosphorylated on serines 396 and 404 • (C) phosphorylated TAU on T231 • (D) phosphorylated TAU on S262.
Transgenic human 5 month old APP*PS1 mice (The Journal of Neuroscience, Sep. 1, 2000, 20(17):6452-6458) were treated daily subcutaneously with 20 mg/kg Compound 6 for 2 weeks.
At the end of the treatment period, mice were sacrificed and the corresponding brains were used for biochemical analysis.

[3] = test system: primary rat hippocampal neurons; assay: Ex-vivo inhibition of oligomeric amyloid beta (ADDL) toxicity in primary neurons; format: cell-based; conditions: 100 ng/mL, 1000 nM ADDL, 24 h, FIG. 4
Procedure: An exemplary compound of this invention was tested for its ability to inhibit toxicity elicited by oligomeric amyloid beta (Aβo). Neurons from rat embryos were harvested and cultured using standard methods (such as used in Schlager et al., 2014. Cell reports, 8(5), pp. 1248-56.). Differentiated neurons were challenged with Apo and viability was quantified.
At day in-vitro 19 days after isolation primary hippocampal neurons were transfected with Marcks-GFP in order to visualize the neurons with fluorescence microscopy.
ADDL (Abeta-derived diffusible ligands) preparation (representing Aβo) was done according to Klein (Klein, 2002. Neurochemistry international, 41(5), pp. 345-52.). Abeta 1-42 was purchased from AnaSpec Inc. and dissolved in HFIP to homogenize the peptide. HFIP was then evaporated in a speedvac and Abeta film was dried at −20° C. overnight over desiccant. Abeta film was then resolubilised in 100% DMSO and further diluted (1/25) in Ham's F12 medium. […]
The solution was centrifuged at 14.000×g for 10 min at 4° C. and supernatants were transferred to fresh tubes and protein concentration determined by NanoDrop®.
At day in-vitro 21 primary rat hippocampal neurons were treated with equal volume of Blank/ADDL solution amounting to 0 and 1000 nM ADDL. […] Viability was assessed using the Live-Dead assay from Thermo Fisher Catalog number: L3224. […]

[4] = test system: Transgenic human APP mice; assay: Morris Water Maze cognition test in transgenic APP mice; format: in vivo; conditions: 20 mg/kg subcutaneously daily for 8 weeks, versus vehicle
Procedure: P-value refers to the treatment of transgenic APP mice with exemplary Compound 6 versus vehicle.
Transgenic human of 4 months of age APP mice (THE JOURNAL OF BIOLOGICAL […] Vol. 274, No. 10, Issue of March 5, pp. 6483-6492, 1999) were treated subcutaneously, daily for 8 weeks with Compound 6 at 20 mg/kg. Cognition was assessed using the Morris Water Maze test. […] After the learning phase a probe test was conducted in which the platform was removed from the water bath to evaluate the spatial memory of the location of the platform.
Both indices indicate that compound treated mice have improved cognitive performance almost identical to wild type controls compared to vehicle treated mice.

mouse brain slices = assay: Afterhyperpolarization of single action potentials in mouse brain slices; format: cell-based; conditions: versus vehicle, FIG. 9, p<0.05
Procedure: FIG. 9 represents a graph plotting the afterhyperpolarization (AHP) amplitude of single action potentials by somatic current clamp recordings using mouse brain slices incubated with vehicle or Compound 6. * indicates p<0.05.
Somatic or dendritic (>200 μm from the soma) current-clamp recordings were performed at RT (24 to 28° C.) and slices were continuously perfused with carboxygenated standard aCSF, supplemented with control or test article REM0043039 at 2 μM. For whole-cell recordings, patch pipettes were filled with a solution containing (in mM) 140 K-gluconate, 5 NaCl, 2 MgCl2, 10 HEPES, 0.5 EGTA, 2 MgATP, 0.4 NaGTP, osmolarity 305, pH adjusted to 7.25 with KOH. The soma or dendrite of large CA1 pyramidal neurons were identified and patch-clamped after visual approach of the recording pipette using a combination of infrared light and differential interference contrast (DIC) optics. […] Recordings were terminated when the series resistances exceeded 40 MO. Signals were digitized and low-pass filtered at 10 kHz. The signal was amplified with an Axopatch 200B amplifier, digitized by a Digidata 155 interface and sampled with Clampex 10 (Molecular Devices, CA). […]
Action potentials (AP) after electrical stimulation of mouse brain slices were analysed (FIG. 9). […]

CA1 pyramidal neurons = assay: Neuronal firing rate in brain slices from tgAPP mice (patch clamp, CA1); format: cell-based, mouse; conditions: 2 μM, 1 hr perfusion, higher stimuli, FIG. 8
Procedure: Brain slices from wild type and tgAPP mice were incubated with DMSO or Compound 6. Neurons were stimulated with increasing currents and the frequency of action potentials (firing rate) was measured.
In tgAPP mice the frequency of action potentials at higher stimuli was higher.
Acute sagittal brain slices from WT or hAPP mice were prepared by decapitation of the mice after isoflurane anaesthesia. Brains were removed quickly and immersed during 3-4 min in ice-cold freshly prepared cutting artificial cerebrospinal fluid (cutting aCSF) containing (in mM) 214 sucrose, 2.5 KCl, 2 CaCl2, 2 MgSO4, 1.25 NaH2PO2, 26 NaHCO3 and 10 glucose and oxygenated with 95% O2/5% CO2. Sagittal 350 μm slices were generated using a vibratome (VT 1000S; Leica Microsystems) and were incubated in standard carboxygenated aCSF (in mM: 125 NaCl, 2.5 KCl, 2 CaCl2, 2 MgSO4, 1.25 NaH2PO2, 26 NaHCO3 and 10 glucose, osmolarity 305 mOsm) at 34° C. during 20 min. The incubation continued at room temperature (RT) for another hour before each slice was transferred to a submerged recording chamber and perfused continuously with carboxygenated aCSF. […]
Dendritic firing rate of CA1 cells was recorded in response to hyperpolarizing and depolarizing steps (−0.4 to +0.45 nA, steps of 0.05 nA) after a 1 hr perfusion with vehicle or compound at 2 μM. […]

VGCC = assay: Ex-vivo inhibition of VGCC activity: KCl-induced Ca2+ influx in primary neurons (Fura2); format: cell-based; conditions: 1.5 μm compound, 45 mM KCl, primary neurons from mouse embryos, FIG. 5, p<0.0001
Procedure: Compound 6 was tested for its ability to inhibit VGCC activity in primary neurons. Neurons from mouse embryos were harvested and cultured using standard methods (such as used in Schlager et al., 2014. Cell reports, 8(5), pp. 1248-56). To stimulate VGCC activity, neurons were depolarized using 45 mM KCl and incubated with vehicle or compound at a concentration of 1.5 μm. Calcium influx was measured using fluorescent cytosolic Ca^2+ detection reagent Fura2.
Changes in cytosolic Ca^2+ concentrations were measured after loading the cells with Fura-2 AM (Sigma-Aldrich), a cell permeable fluorescent probe for Ca^2+. Briefly, Fura-2-AM was dissolved in DMSO plus 20% Pluronic Acid (F-127) (Invitrogen) in a 1:1 ratio and diluted in medium to a final concentration of 0.5 μM. […] Next, changes in cytosolic calcium were measured using a FlexStation 3 microplate reader (Molecular Devices) and quantified ratiometric, by calculating changes in the amount of cytosolic Ca^2+ bound Fura-2 (fluorescence intensity at 340 nm) relative to the amount of Ca^2+ unbound Fura-2 (fluorescence intensity at 380 nm). […]
Compounds were tested at […] for their ability to inhibit Ca^2+ influx in primary neurons (FIG. 5) as described in Example 14. […] The percentage (%) inhibition of Ca^2+ influx relative to vehicle treated neurons was calculated.

| Structure (SMILES) | EC50 (M17-TAU P301L cells [1]) [µg/mL] | EC50 (M17-TAU P301L cells [2]) [ng/mL] | other results |
| --- | --- | --- | --- |
| O=C(NCCc1c[nH]c2ccc(F)cc12)c1cc(Cc2ccc(F)cc2)on1 [Compound 4] | 0.0022 (≈ 5.77 nM) | 3.5 |  |
| COC(=O)C1=C(C)NC(C)=C(C(=O)OC(C)C)C1c1cccc2nonc12 (stereo not shown) [isradepine, reference compound] |  |  | toxicity (LDH leaked into the medium) of RA-incubated cells (M17-TAU P301L cells [1]; FIG. 2, M17-TAU P301L cells with RA): toxicity is reduced |
| O=C(NCCc1c[nH]c2ccc(F)cc12)c1cc(Cc2cc(F)cc(F)c2)on1 [Compound 3] | 0.0021 (≈ 5.26 nM) | 2.4 |  |
| O=C(NCCc1c[nH]c2ccc(F)cc12)c1cc(Cc2ccccc2F)on1 [Compound 7] | 0.0043 (≈ 11.3 nM) | 4.7 |  |
| O=C(NCCc1c[nH]c2ccc(F)cc12)c1cc(Cc2ccc(F)cc2F)on1 [Compound 1] | 0.002 (≈ 5.01 nM) | 1 |  |
| O=C(NCCc1c[nH]c2ccc(F)cc12)c1cc(Cc2ccc(F)c(F)c2)on1 [Compound 2] | 0.002 (≈ 5.01 nM) | 1.4 |  |
| O=C(NCCc1c[nH]c2ccc(F)cc12)c1cc(Cc2cc(F)ccc2F)on1 [Compound 6] | 0.0034 (≈ 8.51 nM) | 2.4 | TAU phosphorylation in brain extracts (TAU phosphorylation): more effectively reduced TAU phosphorylation; neuronal viability after Aβo challenge [3]: strongly rescued; search path during training phase of Morris Water Maze ([4]; FIG. 7A): reduced search path; annulus crossing index score in probe test ([4]; FIG. 7B): higher annulus crossing index score; afterhyperpolarization (AHP) amplitude of action potentials (mouse brain slices): increased; frequency of action potentials (firing rate) (CA1 pyramidal neurons): significantly lowered the frequency towards wild type level; Ca^2+ influx upon KCl depolarization (VGCC): significantly reduced |
| O=C(NCCc1c[nH]c2ccc(F)cc12)c1cc(Cc2cccc(F)c2F)on1 [Compound 5] | 0.0028 (≈ 7.01 nM) | 7.1 |  |
